The record followed here is patent US6849612B2, “Oligonucleotide modulation of cell adhesion” (ISIS Pharmaceuticals, Inc., priority 1993, dated 2005).

Strand notation (5' to 3'): a small letter for the sugar, then the base; units joined by * are phosphorothioate-linked, units joined directly phosphodiester-linked; [ ] holds rarer units or linkages, { } end groups; capitals alone tell only the bases. d = 2'-deoxy (DNA)

One data set deals with leukocyte migration. Kind of data set: Leukocyte migration into carrageenan-soaked sponges in mice. Format: in vivo, mouse. The note with it: 3 mg/kg oral, after surgery, 6-8 hours later and at 21 hours; vs vehicle control.
The test system of data set [1] is ICAM-1. Kind of data set: ELISA of ICAM-1 expression in primary human keratinocytes. Format: cell-based. As to the method:
(§1) Expression of ICAM-1, VCAM-1 and ELAM-1 on the surface of cells can be quantitated using specific monoclonal antibodies in an ELISA. Cells are grown to confluence in 96 well microtiter plates. The cells are stimulated with either interleukin-1 or tumor necrosis factor for 4 to 8 hours to quantitate ELAM-1 and 8 to 24 hours to quantitate ICAM-1 and VCAM-1. Following the appropriate incubation time with the cytokine, the cells are gently washed three times with a buffered isotonic solution containing calcium and magnesium such as Dulbecco's phosphate buffered saline (D-PBS). The cells are then directly fixed on the microtiter plate with 1 to 2% paraformaldehyde diluted in D-PBS for 20 minutes at 25° C. The cells are washed again with D-PBS three times. Nonspecific binding sites on the microtiter plate are blocked with 2% bovine serum albumin in D-PBS for 1 hour at 37° C. Cells are incubated with the appropriate monoclonal antibody diluted in blocking solution for 1 hour at 37° C. Unbound antibody is removed by washing the cells three times with D-PBS. Antibody bound to the cells is detected by incubation with a 1:1000 dilution of biotinylated goat anti-mouse IgG (Bethesda Research Laboratories, Gaithersburg, Md.) in blocking solution for 1 hour at 37° C. Cells are washed three times with D-PBS and then incubated with a 1:1000 dilution of streptavidin conjugated to β-galactosidase (Bethesda Research Laboratories) for 1 hour at 37° C. The cells are washed three times with D-PBS for 5 minutes each. The amount of β-galactosidase bound to the specific monoclonal antibody is determined by developing the plate in a solution of 3.3 mM chlorophenolred-β-D-galactopyranoside, 50 mM sodium phosphate, 1.5 mM MgCl2; pH=7.2 for 2 to 15 minutes at 37° C. The concentration of the product is determined by measuring the absorbance at 575 nm in an ELISA microtiter plate reader. […]
(§2) Cells grown in 96-well plates were washed three times with Opti-MEM (GIBCO, Grand Island, N.Y.) prewarmed to 37° C. […] ICAM-1 expression was determined as described in Example 1. […]
A general note: ELISA stands for enzyme-linked immunosorbent assay.

Data set [2] has as its system C8161 human melanoma cells. The data set is described as follows: Experimental metastasis assay of oligonucleotide-treated C8161 cells in athymic nude mice. Format: in vivo. The protocol:
To evaluate the role of ICAM-1 in metastasis, experimental metastasis assays were performed by injecting 1×10^5 C8161 cells into the lateral tail vein of athymic nude mice. […] Assoc. Cancer Res. 1990, 13, 353].
After 4 weeks, mice were sacrificed, organs were fixed in Bouin's fixative and metastatic lesions on lungs were scored with the aid of a dissecting microscope. Four-week-old female athymic nude mice (Harlan Sprague Dawley) were used. Animals were maintained under the guidelines of the NIH. Groups of 4-8 mice each were tested in experimental metastasis assays.
Treatment of C8161 cells with antisense oligonucleotides ISIS 1570 and ISIS 2302, complementary to ICAM-1, was performed in the presence of the cationic lipid, Lipofectin (Gibco/BRL, Gaithersburg, Md.). Antisense oligonucleotides were synthesized as described in Example 3. Cells were seeded in 60 mm tissue culture dishes at 10^6 cells/ml and incubated at 37 °C for 3 days, washed with OPTI-MEM (Gibco/BRL) 3 times and 100 μl of OPTI-MEM medium was added to each well. 0.5 μM oligonucleotide and 15 μg/ml lipofectin were mixed at room temperature for 15 minutes. 25 μl of the oligonucleotide-lipofectin mixture was added to the appropriate dishes and incubated at 37° C. for 4 hours. The oligonucleotide-lipofectin mixture was removed and replaced with DME-F12 medium containing 10% fetal calf serum. After 4 hours, 500 U/ml TNF-α was added to the appropriate wells and incubated for 18 hours at which time cells were removed from the plates, counted and injected into athymic nude mice.

Data set [3] relates to human corneal donor buttons. Kind of data set: Human corneal donor buttons stored in OPTISOL with ISIS 2302. As to the method: Eleven human corneal donor buttons were stored in TM OPTISOL™ for 8 days and used as the control group. Additional corneal buttons were used for the experimental group and were stored in OPTISOL™ with either 200 μg/ml ISIS 2302 (n=10) or 400 μg/ml ISIS 2302 (n=8). Endothelial cell density was evaluated by specular microscopy. After 8 days, all corneas were prepared for SEM and photographs were taken of endothelial and epithelial surfaces.

Data set [4] deals with ICAM-1. The data set is described as follows: ELISA screening for ICAM-1 expression in interleukin-1β-stimulated cells (HUVEC and A549). Format: cell-based, human. The note with it: interleukin-1β-stimulated cells, two cell lines (HUVEC, A549).
Data set [5] concerns ICAM-1. Kind of data set: ELISA of ICAM-1 cell surface expression in C8161 human melanoma cells. Type of data set: cell-based. The note with it: 15 μg/ml Lipofectin, 5 ng/ml TNF-α 16 hours. As to the method:
(§3) ICAM-1 expression on the cell surface was measured by ELISA. Cells were treated with increasing concentrations of antisense oligonucleotides in the presence of 15 μg/ml Lipofectin for 4 hours at 37° C. ICAM-1 expression was induced by incubation with 5 ng/ml TNF-α for 16 hours. Cells were washed 3× in DPBS and fixed for 20 minutes in 2% formaldehyde. Cells were washed in DPBS, blocked with 2% BSA for 1 hour at 37° C. and incubated with ICAM-1 monoclonal antibody 84H10 (AMAC, Inc., Westbrook, Me.). Detection of bound antibody was determined by incubation with a biotinylated goat anti-mouse IgG followed by incubation with […] streptavidin and developed with chlorophenol red-β-D-galactopyranoside and quantified by absorbance at 575 nm. ICAM-1 mRNA levels were measured by Northern blot analysis.
The data were expressed as percentage of control activity, calculated as follows: (ICAM-1 expression for oligonucleotide-treated, cytokine-induced cells)−(basal ICAM-1 expression)/(ICAM-1 cytokine-induced expression)−(basal ICAM-1 expression)×100.

The next data set has as its system ICAM-1 mRNA. The data set is described as follows: Northern blot of ICAM-1 mRNA in C8161 cells. Type of data set: cell-based, human. The note with it: Northern blot analysis. The protocol:
as §3

In data set [6] the test system is ICAM-1. The data set is described as follows: ELISA of ICAM-1 expression in A431 cells. The note with it: human epidermal carcinoma A431 cells. Type of data set: cell-based. As to the method: as §1, §2

Take `COc1ccc2c(c1)c(CC(=O)O)c(C)n2C(=O)c1ccc(Cl)cc1` [indomethacin]: the “reduction in mean leukocyte count” value in the data set on leukocyte migration is recorded as 79%.

On to “ISIS 2302: P=S, human ICAM-1 3′-Untranslated (2114-2133), SEQ ID NO 22 (antisense dG*dC*dC*dC*dA*dA*dG*dC*dT*dG*dG*dC*dA*dT*dC*dC*dG*dT*dC*dA)”, for which the “inhibition of ICAM-1 expression” value in the data set with ICAM-1 [1] and in the data set with ICAM-1 [6] was “inhibit ICAM-1 expression” throughout. For the same compound, the “No. Lung Metastases per Mouse (Mean ± S.E.M.)” value is 31 ± 8 in data set [2] (C8161 cells treated with 0.5 μM oligonucleotide + Lipofectin + TNF-α, Lipofectin + TNF-α 81 ± 8) and 23 ± 6 in data set [2] (C8161 cells treated with 0.5 μM oligonucleotide + Lipofectin, no TNF-α, Lipofectin only 64 ± 13). Besides, in data set [3], the “toxicity to stored human corneas” value was “not markedly toxic”. For the same compound, in data set [3] (200 or 400 μg/ml in OPTISOL, after 2 or 8 days of storage, vs control), the “endothelial cell density by specular microscopy” value is on record as “no difference in endothelial cell density”. In the data set with ICAM-1 [4], the “inhibition of ICAM-1 expression, relative activity in words” value is listed as “most active of the series, with activity comparable to that of ISIS 1939”. Further, the “cell surface expression of ICAM-1” value in the data set with ICAM-1 [5] is “decreased cell surface expression of ICAM-1”. For the same compound, in the data set on ICAM-1 mRNA, the “ICAM-1 mRNA levels” value is given as “markedly reduced”.
